Reference: patent publication US20140323504A1, “Pyrazolo[4,3-c]Pyridine Derivatives As Kinase Inhibitors” (Cellzome Limited, priority 2011, published 2014)
“And” between values parts separate entries of the source, which are not always exact repeats. Equal entries are not always repeated.

Experiments:
[1] = tested on: NOD mouse model of type I diabetes; settings: cited from earlier work
GVHD = settings: Cetkovic-Cvrlje and Ucken, 2004; cited from earlier work
JAK1 = biological target: T1, JAK1 (Homo sapiens, UniProt P23458); test: Kinobeads assay with antibody detection, JAK1; type: binding; settings: mixed Molt4/Ramos lysate, read-out: JAK1 inhibition value (IC50)
T1 construct: endogenous in cells; host or cells: mixed Molt4/Ramos cell lysate (1:2)
Procedure: (§1) The compounds of the present invention as described in the previous examples were tested in a Kinobeads™ assay as described for ZAP-70 (WO-A 2007/137867). Briefly, test compounds (at various concentrations) and the affinity matrix with the immobilized aminopyrido-pyrimidine ligand 24 were added to cell lysate aliquots and allowed to bind to the proteins in the lysate sample. After the incubation time the beads with captured proteins were separated from the lysate. Bound proteins were then eluted and the presence of JAK1; JAK2, JAK3 and TYK2 was detected and quantified using specific antibodies in a dot blot procedure and the Odyssey infrared detection system. Dose response curves for individual kinases were generated and IC50 values calculated. Kinobeads™ assays for ZAP-70 (WO-A 2007/137867) and for kinase selectivity profiling (WO-A 2006/134056) have been previously described.
(§2) 5×DP buffer: 250 mM Tris-HCl pH 7.4, 25% Glycerol, 7.5 mM MgCl2, 750 mM NaCl, 5 mM Na3VO4; filter the 5×DP buffer through a 0.22 μm filter and store in aliquot at −80° C. The 5×DP buffer is diluted with H2O to 1×DP buffer containing 1 mM DTT and 25 mM NaF.
(§3) Stock solutions of test compounds were prepared in DMSO. In a 96 well plate 30 μL solution of diluted test compounds at 5 mM in DMSO were prepared. Starting with this solution a 1:3 dilution series (9 steps) was prepared. For control experiments (no test compound) a buffer containing 2% DMSO was used.
(§4) Molt4 cells (ATCC catalogue number CRL-1582) and Ramos cells (ATCC catalogue number CRL-1596) were grown in 1 L Spinner flasks (Integra Biosciences, #182101) in suspension in RPMI 1640 medium (Invitrogen, #21875-034) supplemented with 10% Fetal Bovine Serum (Invitrogen) at a density between 0.15×10^6 and 1.2×10^6 cells/mL. Cells were harvested by centrifugation, washed once with 1×PBS buffer (Invitrogen, #14190-094) and cell pellets were frozen in liquid nitrogen and subsequently stored at −80° C. Cells were homogenized in a Potter S homogenizer in lysis buffer: 50 mM Tris-HCl, 0.8% NP40, 5% glycerol, 150 mM NaCl, 1.5 mM MgCl2, 25 mM NaF, 1 mM sodium vanadate, 1 mM DTT, pH 7.5. One complete EDTA-free tablet (protease inhibitor cocktail, Roche Diagnostics, 1873580) per 25 mL buffer was added. The material was dounced 10 times using a mechanized POTTER S, transferred to 50 mL falcon tubes, incubated for 30 minutes on ice and spun down for 10 minutes at 20,000 g at 4° C. (10,000 rpm in Sorvall SLA600, precooled). The supernatant was transferred to an ultracentrifuge (UZ)-polycarbonate tube (Beckmann, 355654) and spun for 1 hour at 100.000 g at 4° C. (33.500 rpm in Ti50.2, precooled). The supernatant was transferred again to a fresh 50 mL falcon tube, the protein concentration was determined by a Bradford assay (BioRad) and samples containing 50 mg of protein per aliquot were prepared. The samples were immediately used for experiments or frozen in liquid nitrogen and stored frozen at −80° C.
(§5) Cell lysate (approximately 50 mg protein per plate) was thawed in a water bath at room temperature and then stored on ice. To the thawed cell lysate 1×DP 0.8% NP40 buffer containing protease inhibitors (1 tablet for 25 mL buffer; EDTA-free protease inhibitor cocktail; Roche. Diagnostics 1873580) was added in order to reach a final protein concentration of 10 mg/mL total protein. The diluted cell lysate was stored on ice. Mixed Molt4Ramos lysate was prepared by combining one volume of Molt4 lysate and two volumes of Ramos lysate (ratio 1:2).
(§6) Plates were sealed and incubated for 3 hours in a cold room on a plate shaker (Heidolph tiramax 1000) at 750 rpm. Afterwards the plate was washed 3 times with 230 μL washing buffer (1×DP 0.4% NP40). The filter plate was placed on top of a collection plate (Greiner bio-one, PP-microplate 96 well V-shape, 65120) and the beads were then eluted with 20 μL of sample buffer (100 mM Tris, pH 7.4, 4% SDS, 0.00025% bromophenol blue, 20% glycerol, 50 mM DTT). […]

JAK2 = biological target: T2, JAK2 (Homo sapiens, UniProt O60674); test: Kinobeads assay with antibody detection, JAK2; type: binding; settings: mixed Molt4/Ramos lysate, read-out: JAK2 inhibition value (IC50)
T2 construct: endogenous in cells; host or cells: mixed Molt4/Ramos cell lysate (1:2)
Procedure: as §1, §2, §3, §4, §5, §6

Tyk2 = biological target: T3, Tyk2 (Homo sapiens, UniProt P29597); test: Kinobeads assay with antibody detection, TYK2; type: binding; settings: mixed Molt4/Ramos lysate, read-out: Tyk2 inhibition value (IC50)
T3 construct: endogenous in cells; host or cells: mixed Molt4/Ramos cell lysate (1:2)
Procedure: as §1, §2, §3, §4, §5, §6

JAK3 = biological target: T4, JAK3 (Homo sapiens, UniProt P52333); test: Kinobeads assay with antibody detection, JAK3; type: binding; set-up: endogenous in cells; host or cells: mixed Molt4/Ramos cell lysate (1:2); settings: mixed Molt4/Ramos lysate, read-out: JAK3 inhibition value (IC50)
T4 sequence (P52333 1-1124): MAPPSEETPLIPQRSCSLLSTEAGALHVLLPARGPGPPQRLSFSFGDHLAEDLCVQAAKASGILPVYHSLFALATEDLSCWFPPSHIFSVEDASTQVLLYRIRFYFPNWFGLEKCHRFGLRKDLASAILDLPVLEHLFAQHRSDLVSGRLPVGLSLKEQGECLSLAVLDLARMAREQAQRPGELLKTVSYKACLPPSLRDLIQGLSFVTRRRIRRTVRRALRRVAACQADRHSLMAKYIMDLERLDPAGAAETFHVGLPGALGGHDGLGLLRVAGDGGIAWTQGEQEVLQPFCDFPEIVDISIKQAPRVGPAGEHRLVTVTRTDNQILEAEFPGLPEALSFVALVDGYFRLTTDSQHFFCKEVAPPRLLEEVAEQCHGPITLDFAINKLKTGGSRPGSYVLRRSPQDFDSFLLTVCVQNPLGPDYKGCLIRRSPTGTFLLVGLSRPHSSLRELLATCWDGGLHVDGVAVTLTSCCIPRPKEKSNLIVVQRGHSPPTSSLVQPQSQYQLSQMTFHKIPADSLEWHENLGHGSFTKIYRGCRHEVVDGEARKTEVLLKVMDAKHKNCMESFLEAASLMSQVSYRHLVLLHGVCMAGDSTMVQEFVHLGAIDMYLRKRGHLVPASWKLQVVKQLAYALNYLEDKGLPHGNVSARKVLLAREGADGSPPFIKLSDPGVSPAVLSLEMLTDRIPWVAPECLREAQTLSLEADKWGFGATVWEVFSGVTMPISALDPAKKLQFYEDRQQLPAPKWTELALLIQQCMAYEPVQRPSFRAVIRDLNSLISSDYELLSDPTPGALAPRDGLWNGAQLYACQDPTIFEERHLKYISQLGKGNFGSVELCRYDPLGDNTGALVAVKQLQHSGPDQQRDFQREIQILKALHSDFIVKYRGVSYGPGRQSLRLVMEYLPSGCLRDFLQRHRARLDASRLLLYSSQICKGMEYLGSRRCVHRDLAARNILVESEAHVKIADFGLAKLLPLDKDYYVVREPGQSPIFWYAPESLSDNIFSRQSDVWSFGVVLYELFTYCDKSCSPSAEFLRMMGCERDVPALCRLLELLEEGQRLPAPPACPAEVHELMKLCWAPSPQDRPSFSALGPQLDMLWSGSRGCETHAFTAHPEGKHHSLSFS
Procedure: as §1, §2, §3, §4, §5, §6

[2] = tested on: STAT5 phosphorylation in IL-2 stimulated YT cells; test: Cell assay with washout of compounds (pSTAT5, YT cells, MSD); type: cell-based, human
Procedure: This time course experiment allows determination as to whether the pharmacological effect of the tested compounds persists over time even after the compound is removed from the cell samples.
Human YT cells were grown as described above. Cells were harvested by centrifugation and resuspended in RPMI0.5% heat-inactivated FBS. 3×10^5 cells were seeded in 60 μl per well in a round-bottomed 96 well plate (BD-Falcon, 353077).
Test compounds were dissolved in DMSO and a 1:3 dilution series (9 steps) was prepared. To generate a dose response curve, 30 μl of fourfold concentrated compound in 4% DMSO/RPMI/0.5% FBS were added to each cell sample in the 96 well plate resulting in a final DMSO concentration of 1% DMSO. Cells were incubated for one hour in a humidified incubator (37° C., 5% CO2). After incubation cells were washed twice by centrifugation and replacement of media (RPMI/0.5% FBS), with the exception of the time 0 plate. Washed cells were incubated for 30 min, 1, 2 and 4 hours in a humidified incubator (37° C., 5% CO2) prior to stimulation with IL-2. To each well 30 μl of a fourfold concentrated IL-2 solution (Recombinant human IL-2, Peprotech 200-02; 120 nM solution in RPMI) was added and incubated for 30 minutes at room temperature. Cells were lysed by adding 30 μl of 5× lysis buffer (MSD lysis buffer) and incubated for 10 minutes at 4° C. with gentle shaking.
The effect of compounds on STATS phosphorylation was determined in lysates using the MSD MULTI-SPOT® 96 4-spot phosphor-STAT5a,b whole cell lysatc kit (MesoScale Discovery, K150IGD-3) according to the manufacturer's protocol. Data were analysed in BioAssay using the nonlinear regression for a sigmoidal dose-response with a variable slope and IC50 values were determined.

[3] = tested on: animal model of organ transplantation; settings: Changelian et al., 2003; cited from earlier work
[4] = IL-2 stimulated YT cells, 0 min (no wash)

T3 sequence (P29597 whole entry): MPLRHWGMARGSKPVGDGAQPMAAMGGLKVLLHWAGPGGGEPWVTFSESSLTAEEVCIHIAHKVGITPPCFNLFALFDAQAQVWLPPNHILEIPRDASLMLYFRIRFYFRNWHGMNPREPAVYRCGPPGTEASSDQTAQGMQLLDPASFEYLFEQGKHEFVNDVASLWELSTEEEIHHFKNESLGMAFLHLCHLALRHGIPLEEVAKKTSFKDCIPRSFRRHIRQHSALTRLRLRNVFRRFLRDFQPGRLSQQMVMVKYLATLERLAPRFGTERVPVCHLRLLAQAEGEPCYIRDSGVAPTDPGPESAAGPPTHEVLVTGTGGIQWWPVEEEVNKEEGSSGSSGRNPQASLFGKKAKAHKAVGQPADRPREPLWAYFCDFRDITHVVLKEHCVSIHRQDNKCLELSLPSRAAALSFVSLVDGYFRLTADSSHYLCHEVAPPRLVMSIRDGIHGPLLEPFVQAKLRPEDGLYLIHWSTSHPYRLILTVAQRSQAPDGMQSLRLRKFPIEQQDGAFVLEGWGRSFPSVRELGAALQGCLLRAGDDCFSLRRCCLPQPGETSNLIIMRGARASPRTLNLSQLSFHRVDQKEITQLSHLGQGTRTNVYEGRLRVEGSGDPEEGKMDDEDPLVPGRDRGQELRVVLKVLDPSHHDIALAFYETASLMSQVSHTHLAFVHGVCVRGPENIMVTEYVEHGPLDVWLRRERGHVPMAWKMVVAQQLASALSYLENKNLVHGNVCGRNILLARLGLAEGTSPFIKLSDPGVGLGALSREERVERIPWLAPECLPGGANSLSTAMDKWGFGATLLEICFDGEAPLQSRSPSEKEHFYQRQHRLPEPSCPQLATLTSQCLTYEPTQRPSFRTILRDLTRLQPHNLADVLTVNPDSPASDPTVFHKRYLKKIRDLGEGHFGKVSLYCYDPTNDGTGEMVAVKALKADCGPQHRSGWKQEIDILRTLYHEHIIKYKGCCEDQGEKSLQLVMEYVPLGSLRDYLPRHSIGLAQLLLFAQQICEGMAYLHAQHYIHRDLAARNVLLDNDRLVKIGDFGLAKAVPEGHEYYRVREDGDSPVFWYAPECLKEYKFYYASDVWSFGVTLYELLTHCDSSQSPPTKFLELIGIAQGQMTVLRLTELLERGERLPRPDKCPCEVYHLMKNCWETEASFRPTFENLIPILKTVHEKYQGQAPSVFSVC
T1 sequence (P23458 whole entry): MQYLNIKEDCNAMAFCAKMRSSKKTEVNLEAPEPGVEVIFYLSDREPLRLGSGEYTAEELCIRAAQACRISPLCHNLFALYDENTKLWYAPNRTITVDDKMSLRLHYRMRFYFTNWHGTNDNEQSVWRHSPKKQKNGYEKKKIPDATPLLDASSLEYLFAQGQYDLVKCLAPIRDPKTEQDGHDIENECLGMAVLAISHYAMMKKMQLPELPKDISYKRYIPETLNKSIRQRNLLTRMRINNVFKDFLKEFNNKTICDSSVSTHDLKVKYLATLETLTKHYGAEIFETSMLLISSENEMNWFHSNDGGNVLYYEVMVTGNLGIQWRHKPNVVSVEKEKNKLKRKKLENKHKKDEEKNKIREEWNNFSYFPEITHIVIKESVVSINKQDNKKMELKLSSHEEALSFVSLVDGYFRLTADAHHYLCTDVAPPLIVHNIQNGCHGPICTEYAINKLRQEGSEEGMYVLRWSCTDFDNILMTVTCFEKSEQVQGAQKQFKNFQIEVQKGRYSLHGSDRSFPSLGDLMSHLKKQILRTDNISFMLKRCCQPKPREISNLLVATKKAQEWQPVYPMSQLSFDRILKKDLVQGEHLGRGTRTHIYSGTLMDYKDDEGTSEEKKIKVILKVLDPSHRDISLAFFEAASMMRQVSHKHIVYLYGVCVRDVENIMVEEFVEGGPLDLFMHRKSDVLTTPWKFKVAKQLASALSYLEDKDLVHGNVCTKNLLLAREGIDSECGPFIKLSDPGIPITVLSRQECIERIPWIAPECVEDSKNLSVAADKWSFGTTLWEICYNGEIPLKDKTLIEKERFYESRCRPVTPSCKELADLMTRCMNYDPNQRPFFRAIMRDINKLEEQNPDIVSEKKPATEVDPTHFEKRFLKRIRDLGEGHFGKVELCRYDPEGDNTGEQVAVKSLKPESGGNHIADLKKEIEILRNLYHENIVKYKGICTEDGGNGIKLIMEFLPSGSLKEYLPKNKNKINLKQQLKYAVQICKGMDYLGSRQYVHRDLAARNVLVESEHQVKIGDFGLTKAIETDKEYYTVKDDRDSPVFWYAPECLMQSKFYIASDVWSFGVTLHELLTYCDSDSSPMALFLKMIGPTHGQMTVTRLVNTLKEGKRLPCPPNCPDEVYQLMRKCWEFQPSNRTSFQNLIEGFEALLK
T2 sequence (O60674 whole entry): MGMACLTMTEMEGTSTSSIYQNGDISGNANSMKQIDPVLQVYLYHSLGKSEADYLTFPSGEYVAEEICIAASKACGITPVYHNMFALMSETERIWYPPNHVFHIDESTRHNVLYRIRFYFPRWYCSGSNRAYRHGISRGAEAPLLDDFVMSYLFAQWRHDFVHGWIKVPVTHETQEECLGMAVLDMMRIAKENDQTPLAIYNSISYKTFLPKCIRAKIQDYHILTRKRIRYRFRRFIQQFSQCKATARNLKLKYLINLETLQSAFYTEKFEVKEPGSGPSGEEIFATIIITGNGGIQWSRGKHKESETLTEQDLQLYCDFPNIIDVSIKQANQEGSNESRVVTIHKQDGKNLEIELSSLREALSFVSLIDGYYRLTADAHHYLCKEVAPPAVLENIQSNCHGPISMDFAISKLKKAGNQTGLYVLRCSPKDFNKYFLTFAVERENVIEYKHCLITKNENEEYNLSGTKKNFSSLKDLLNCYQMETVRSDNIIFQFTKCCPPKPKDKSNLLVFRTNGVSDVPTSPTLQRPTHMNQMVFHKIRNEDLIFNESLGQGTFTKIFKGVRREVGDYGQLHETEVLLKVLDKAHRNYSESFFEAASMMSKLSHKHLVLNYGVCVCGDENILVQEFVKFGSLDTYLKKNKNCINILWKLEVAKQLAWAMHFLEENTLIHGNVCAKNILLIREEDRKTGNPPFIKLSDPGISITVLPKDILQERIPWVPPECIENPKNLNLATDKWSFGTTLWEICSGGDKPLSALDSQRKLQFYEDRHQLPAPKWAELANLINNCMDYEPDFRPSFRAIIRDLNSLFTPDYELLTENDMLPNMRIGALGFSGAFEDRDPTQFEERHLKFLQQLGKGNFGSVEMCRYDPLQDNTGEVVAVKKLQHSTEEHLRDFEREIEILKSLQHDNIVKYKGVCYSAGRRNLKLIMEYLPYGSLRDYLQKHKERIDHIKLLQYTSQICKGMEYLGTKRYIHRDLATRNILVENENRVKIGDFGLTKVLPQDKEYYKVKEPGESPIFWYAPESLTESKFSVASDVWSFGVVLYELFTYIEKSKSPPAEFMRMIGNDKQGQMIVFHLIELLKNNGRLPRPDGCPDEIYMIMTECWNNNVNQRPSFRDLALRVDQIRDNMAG

SMILES	IC50 (JAK1) [µM]	IC50 (JAK2) [µM]	IC50 (Tyk2) [µM]	IC50 (JAK3) [µM]	further results
COc1cc2ncnc(Nc3ccc(O)cc3)c2cc1OC [JANEX-1]					spontaneous autoimmune diabetes development [1]: prevent spontaneous autoimmune diabetes development; severity of GVHD (GVHD): attenuate the severity of GVHD
C[C@@H]1CCN(C(=O)CC#N)C[C@@H]1N(C)c1ncnc2[nH]ccc12 [Reference example 3, CP 690,550]					pSTAT5 inhibition pIC50, 0 min (no wash) [2, 4]: 7.6 and 7.8; pSTAT5 inhibition pIC50, 30 min after washout ([2]; IL-2 stimulated YT cells): 5.1; pSTAT5 inhibition pIC50, 1 hour after washout ([2]; IL-2 stimulated YT cells): inactive; pSTAT5 inhibition pIC50, 2 hours after washout ([2]; IL-2 stimulated YT cells): inactive; pSTAT5 inhibition pIC50, 4 hours after washout ([2]; IL-2 stimulated YT cells): Inactive; activity 30 minutes after the washing of cells ([2]; YT cells, 30 minutes after washing): significant drop in activity; inhibition activity 1 hour after washing ([2]; YT cells, 1 hour after washing): completely lost; efficacy in organ transplantation model [3]: show efficacy in an animal model of organ transplantation
Cn1cc(Nc2ncc3cnn(Cc4cccc(NC5COC5)c4)c3n2)cn1 [Reference example 1, N-(1-methyl-1H-pyrazol-4-yl)-1-(3-(oxetan-3-ylamino)benzyl)-1H-pyrazolo[3,4-d]pyrimidin-6-amine]					IC50 ([2]; Homo sapiens, 0 h, IL-2 stimulated YT cells, 0 min (no wash), read-out: pSTAT5 inhibition pIC50, 0 min (no wash) (converted)): 1.58 µM; pSTAT5 inhibition pIC50, 0 min (no wash) [2, 4]: 5.7; pSTAT5 inhibition pIC50, 30 min after washout ([2]; IL-2 stimulated YT cells): inactive; pSTAT5 inhibition pIC50, 1 hour after washout ([2]; IL-2 stimulated YT cells): inactive; pSTAT5 inhibition pIC50, 2 hours after washout ([2]; IL-2 stimulated YT cells): inactive; pSTAT5 inhibition pIC50, 4 hours after washout ([2]; IL-2 stimulated YT cells): inactive
CC(C)=CC(=O)Nc1cccc(Cn2ncc3cnc(Nc4cnn(C)c4)nc32)c1 [Example 6, 3-Methyl-N-(3-((6-((1-methyl-1H-pyrazol-4-yl)amino)-1H-pyrazolo[3,4-d]pyrimidin-1-yl)methyl)phenyl)but-2-enamide]	> 10	> 10	> 10	1.31	

Second part, led by results:

IC50 (JAK1) [µM]	IC50 (JAK2) [µM]	IC50 (Tyk2) [µM]	IC50 (JAK3) [µM]	SMILES	further results
5.37	> 10	5.08	0.001	C=CC(=O)Nc1cccc(Cn2ncc3cnc(Nc4cnn(C)c4)cc32)c1 [Example 10, N-(3-((6-((1-Methyl-1H-pyrazol-4-yl)amino)-1H-pyrazolo[4,3-c]pyridin-1-yl)methyl)phenyl)acrylamide]	
9.42	> 10	8.08	0.003	C=CC(=O)Nc1cccc(Cn2ccc3cnc(Nc4cnn(C)c4)nc32)c1 [Example 9, N-(3-((2-((1-Methyl-1H-pyrazol-4-yl)amino)-7H-pyrrolo[2,3-d]pyrimidin-7-yl)methyl)phenyl)acrylamide]	
> 10	> 10	> 10	0.005	C=CC(=O)Nc1cccc(Cn2ncc3cnc(Nc4ccn(C)n4)cc32)c1 [Example 8, N-(3-((6-((1-Methyl-1H-pyrazol-3-yl)amino)-1H-pyrazolo[4,3-c]pyridin-1-yl)methyl)phenyl)acrylamide]	
